We go through 13 molecules from patent US11981618B2, “P62 ligand compound, and composition for preventing, ameliorating or treating proteinopathies comprising the same” (AUTOTAC INC., priority 2018, dated 2024).

In one test the test system is p62 and LC3. Kind of test: Autophagy activity in cultured cells by immunofluorescence staining and confocal microscopy (p62 and LC3 puncta). Type of test: cell-based, human. Particulars: for p62 activation/oligomerization, delivery to autophagosome and autophagy activity (p62 and LC3 puncta, co-existence): HeLa, 5 uM, 24 hours, FIGS. 6a and 6b; for p62 activation/oligomerization, delivery to autophagosome and autophagy activity (p62 and LC3 puncta), control compounds: different concentrations, FIG. 7. On the procedure: In order to confirm the p62 protein activity and the activity level of autophagy phenomenon by the compounds (Examples 1-19), immunofluorescence staining was performed using p62 and LC3 as markers. In order to confirm the p62 activity and the activity level of autophagy phenomenon by new p62 ligands and isomers thereof in cultured cells, HeLa cell line, which is a cell line derived from cervical cancer patient, was treated with the novel p62 ligand compounds (YOK-1106, YOK-1204, YOK-1504, YOK-2204, YOK-3304, YOK-4404, YOK-1107, YOK-1109, YOK-2207, YOK-2209, YT-4-1, YT-4-2, YT-6-1, YT-9-1 and YT-9-2) and cultured. Thereafter, as markers of the autophagy phenomenon, the expression level and location of LC3 puncta and the local co-existence with p62 puncta were observed.
For immunofluorescence staining, a cover glass was placed on a 24-well plate, cells were dispensed, cultured for 24 hours, and then treated with 5 uM of the novel p62 ligands according to the present invention. For the action of the compounds, additional cultures were performed for 24 hours, and then the medium was removed. Cells were fixed using formaldehyde at room temperature. In order to prevent non-specific staining, the cells were allowed to react with a blocking solution at room temperature for 1 hour, and then treated with LC3 antibody diluted at a certain ratio using the blocking solution, and allowed to reacted at room temperature for 1 hour. The antibody-treated cells were washed three times with PBS, and goat-derived secondary antibody was diluted at a certain ratio using the blocking solution, and then allowed to react at room temperature for 30 minutes. The cells were washed again with PBS three times, and for intracellular nuclear staining, the expression level, intracellular puncta formation and intracellular coexistence level of p62 and LC3 were observed through a confocal microscopy after DAPI staining.
In order to confirm p62 protein activity and the activity level of autophagy phenomenon of control compounds (YOK-A-1104, YOK-G-1104, YTK-1005, YTK-1105-1), immunofluorescence staining was performed in the same manner as in Experimental Example 4 by using p62 and LC3 as markers. YOK-A-1104 and YOK-G-1104 are compounds having the following structures.
The compounds were treated at different concentrations, and intracellular puncta of p62 or LC3, that is, the degree to which autophagosome was formed and p62 was delivered was observed by a confocal microscopy.

For the next test, the system named is LC3. Kind of test: Autophagy activity in cultured cells by immunoblotting using LC3 as a marker. The format is cell-based, human. Particulars: HeLa. On the procedure: In order to evaluate the autophagy activity efficacy by the compounds (Examples 1-19), HeLa cell line, which is a cell line derived from a cervical cancer patient, was cultured using a DMEM medium containing 10% FBS and 1% streptomycin/penicillin in an incubator with 5% carbon dioxide. As representative compounds among the present compounds, YOK-1107, YOK-4404 and YOK-1104 were selected. In order to measure autophagy activity according to the treatment with these selected representative compounds, the respective cells were dispensed into 6 well plates. Additional cultures were performed […] so that the cells were completely attached to the surface of the plate. To find the concentration at which the respective compounds could increase the phenomenon of autophagy, the test compounds were diluted at 1, 2, 5, 10 and 20 μM and treated. After treatment with the respective compounds, the cells were cultured again in a cell incubator for 24 hours, and then the cells were collected. To extract proteins from the collected cells, 100 ul of lysis buffer (20 mM Tris (pH 7.4), 150 mM NaCl, 1% Triton X-100, 2 mM NaF, 2 mM EDTA, 2 mM beta-glycerophosphate, 5 mM sodium orthovanadate, 1 mM PMSF, leupeptin, aprotinin) was injected into each sample, and cells were lysed. Based on the measured total protein concentration, a sample buffer was added to each sample and allowed to react at 100° C. for 5 minutes. 5 ul was taken from the samples after the reaction, and dispensed into each well of acrylamide gel, and then immunoblotting was performed.
In order to investigate the autophagy activity efficacy by the compounds (Examples 1-19), immunoblotting was performed in the same manner as in Experimental Example 2 using LC3 as a marker. As for the difference, in order to evaluate the treatment time required for activation and the activity retention time, as the representative compounds selected among the present compounds, 5 μM of YOK-1107, YOK-1204, YOK-1304, YOK-2204, YOK-3304, […] treated for 1, 3, 6, 12, 24, 48 hours. On the other hand, as the representative compounds selected among the compounds of the present invention, […] YOK-1107, YOK-1109, YOK-2207, YOK-2209, YT-4-1, YT-4-2, YT-6-1, YT-6-2, YT-6-8, YT-6-7, YT-9-1, YT-9-2 were treated for 24 hours.
In order to investigate the autophagy activity efficacy of control compounds, immunoblotting was performed in the same manner as in Experimental Example 2 by using LC3 as a marker. As the control compounds, compounds having the following structure were used.

For another test, the target named is T1, p62 protein (Homo sapiens, UniProt Q13501).
T1 construct: endogenous in cells; host or cells: HEK293 (cell lysate treated with compounds)
As to the kind of experiment: Oligomerization activity of p62 protein in cultured cells by immunoblotting. Particulars: HEK293 cell lysate treated with test compounds at room temperature for 2 hours; immunoblot, FIG. 2. Type of test: cell-based. The text has this: In order to evaluate the p62 protein oligomerization activity efficacy by the compounds (Examples 1-19), HEK293 cell line, which is human embryonic kidney-derived cell, was collected. As representative compounds among the present compounds, YOK-1104, YOK-2204, YOK-3304, YOK-1204, YOK-4404, YOK-1107, YOK-1109, YOK-2207, YOK-2209, YT-4-1, YT-4-2, YT-6-1, YT-6-2, YT-6-7, YT-6-8, YT-9-1, YT-9-2 were selected. In order to measure intracellular p62 protein activation and oligomerization according to the treatment with these selected representative compounds, the respective cells were dispensed into a pi dish. The cells were collected after further culturing for 24 hours so that the cells were completely attached to the surface of the plate. 100 ul of lysis buffer (20 mM Tris, pH 7.4), 150 mM NaCl, 1% Triton X-100, 2 mM NaF, 2 mM EDTA, 2 mM beta-glycerophosphate, 5 mM sodium orthovanadate, 1 mM PMSF, leupeptin, aprotinin) were injected into each sample and the cells were lysed. Based on the measured total protein concentration, each sample was treated with test compounds at room temperature for 2 hours, and then a sample buffer was added and allowed to react at 95° C. for 10 minutes. 25 ul was taken from the samples after the reaction, and dispensed into each well of acrylamide gel, and then immunoblotting was performed.

Where [1] appears, read: 5 μM, treated for 1, 3, 6, 12, 24, 48 hours, FIG. 4.
[2] abbreviates: treated for 24 hours (concentration not given), FIG. 4.

SMILES strings stand for the structures. “Also recorded” adds a separate entry of the source.

T1 sequence (Q13501 whole entry): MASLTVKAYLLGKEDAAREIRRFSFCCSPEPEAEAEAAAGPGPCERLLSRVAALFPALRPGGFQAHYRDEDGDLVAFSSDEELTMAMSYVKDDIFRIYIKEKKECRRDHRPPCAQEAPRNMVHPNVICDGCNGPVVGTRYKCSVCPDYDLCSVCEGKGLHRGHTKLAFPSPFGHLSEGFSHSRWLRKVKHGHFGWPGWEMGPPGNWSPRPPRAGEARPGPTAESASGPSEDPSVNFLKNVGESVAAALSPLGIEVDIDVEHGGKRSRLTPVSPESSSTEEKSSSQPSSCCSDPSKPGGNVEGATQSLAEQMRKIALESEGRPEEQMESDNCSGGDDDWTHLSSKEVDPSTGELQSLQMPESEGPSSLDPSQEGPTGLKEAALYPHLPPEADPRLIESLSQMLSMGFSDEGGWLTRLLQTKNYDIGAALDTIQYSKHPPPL

With `OCCNC[C@@H](O)COc1ccc(OCc2ccccc2)c(OCc2ccccc2)c1` [YOK-1106], the “p62 activation/oligomerization, delivery to autophagosome and autophagy activity (p62 and LC3 puncta, co-existence)” value in the test with p62 and LC3 was “delivering them to autophagosome and simultaneously increasing autophagy activity”. Also, in the test on LC3 (setting [1]), the “autophagy activity (level of LC3)” value is recorded as “increasing the autophagy activity”.
Consider `CC(C)NC[C@@H](O)COc1ccc(OCc2ccccc2)c(OCCc2ccccc2)c1` [YOK-1204, (R)-1-(4-(benzyloxy)-3-phenethoxyphenoxy)-3-(isopropylamino)propan-2-ol], for which the “p62 activation/oligomerization, delivery to autophagosome and autophagy activity (p62 and LC3 puncta, co-existence)” value with p62 and LC3 was “delivering them to autophagosome and simultaneously increasing autophagy activity”. Further, the “p62 protein oligomerization activity (p62 monomer, oligomers and high-molecular aggregates)” value (from here on “p62 protein oligomerization activity”) on p62 protein was “increasing the p62 protein oligomerization activity”. Also, the “autophagy activity (level of LC3)” value in the test on LC3 (setting [1]) is “gradually increased; also recorded: increasing the autophagy activity”.
With `CC(C)NC[C@@H](O)COc1ccc(OCCc2ccccc2)c(OCCc2ccccc2)c1` [YOK-2204, (R)-1-(3,4-diphenethoxyphenoxy)-3-(isopropylamino)propan-2-ol], the “p62 activation/oligomerization, delivery to autophagosome and autophagy activity (p62 and LC3 puncta, co-existence)” value in the test on p62 and LC3 was “delivering them to autophagosome and simultaneously increasing autophagy activity”. Besides, at p62 protein, the “p62 protein oligomerization activity” value was “increasing the p62 protein oligomerization activity”. For the same molecule, the “autophagy activity (level of LC3)” value in the test on LC3 (setting [1]) is given as “gradually increased; also recorded: increasing the autophagy activity”.
On to `CC(C)NC[C@@H](O)COc1ccc(OCCCc2ccccc2)c(OCCCc2ccccc2)c1` [YOK-3304, (R)-1-(3,4-bis(3-phenylpropoxy)phenoxy)-3-(isopropylamino)propan-2-ol], for which the “p62 activation/oligomerization, delivery to autophagosome and autophagy activity (p62 and LC3 puncta, co-existence)” value in the test on p62 and LC3 is “delivering them to autophagosome and simultaneously increasing autophagy activity”. Besides, the “p62 protein oligomerization activity” value at p62 protein is listed as “increasing the p62 protein oligomerization activity”. The “autophagy activity (level of LC3)” value in the test on LC3 (setting [1]) is recorded as “gradually increased”.
`CC(C)NC[C@@H](O)COc1ccc(OCCCCc2ccccc2)c(OCCCCc2ccccc2)c1` [YOK-4404, (R)-1-(3,4-bis(4-phenylbutoxy)phenoxy)-3-(isopropylamino)propan-2-ol]: in the test with p62 and LC3, the “p62 activation/oligomerization, delivery to autophagosome and autophagy activity (p62 and LC3 puncta, co-existence)” value was “delivering them to autophagosome and simultaneously increasing autophagy activity”. Further, the “p62 protein oligomerization activity” value on p62 protein is “increasing the p62 protein oligomerization activity”. For the same molecule, the “autophagy activity (level of LC3)” value in the test with LC3 (setting [1]) is listed as “increasing the autophagy activity”; in the test on LC3 (1, 2, 5, 10 and 20 μM, 24 hours, FIG. 3), “increasing the autophagy activity”.
As to `CCOC(=O)C(C)NC[C@@H](O)COc1ccc(OCc2ccccc2)c(OCc2ccccc2)c1` (stereo partly drawn) [YOK-A-1104, Ethyl (R)-(3-(3,4-bis(benzyloxy)phenoxy)-2-hydroxypropyl)alanineate, reference compound], the “p62 activation/oligomerization, delivery to autophagosome and autophagy activity (p62 and LC3 puncta), control compounds” value in the test with p62 and LC3 is “delivering them to autophagosome and simultaneously increasing autophagy activity”.
With `COC(=O)CNC[C@@H](O)COc1ccc(OCc2ccccc2)c(OCc2ccccc2)c1` [YOK-G-1104, Methyl (R)-(3-(3,4-bis(benzyloxy)phenoxy)-2-hydroxypropyl)glycineate, reference compound], the “p62 activation/oligomerization, delivery to autophagosome and autophagy activity (p62 and LC3 puncta), control compounds” value with p62 and LC3 was “delivering them to autophagosome and simultaneously increasing autophagy activity”.
For the molecule `OCCNC[C@@H](O)COc1cccc(OCc2ccc(Cl)cc2)c1` [YT-6-7, (R)-1-(3-((4-chlorobenzyl)oxy)phenoxy)-3-((2-hydroxyethyl)amino)propan-2-ol], the “p62 protein oligomerization activity” value at p62 protein is “increasing the p62 protein oligomerization activity”. Besides, the “autophagy activity (level of LC3)” value in the test with LC3 (setting [2]) is on record as “gradually increased”.
On the same counts, the results for `OCCNC[C@@H](O)COc1cccc(OCc2ccc(F)cc2)c1` [YT-6-8, (R)-1-(3-((4-fluorobenzyl)oxy)phenoxy)-3-((2-hydroxyethyl)amino)propan-2-ol] are “increasing the p62 protein oligomerization activity” and “gradually increased”.
Take `N=C(N)NCCNC[C@@H](O)COc1ccc(OCc2ccc(Cl)cc2)c(OCc2ccc(Cl)cc2)c1` [YT-9-1]: the “p62 protein oligomerization activity” value at p62 protein is listed as “increasing the p62 protein oligomerization activity”. In the test on LC3 (setting [2]), the “autophagy activity (level of LC3)” value is listed as “gradually increased”.
For `N=C(N)NCCNC[C@@H](O)COc1ccc(OCc2ccc(F)cc2)c(OCc2ccc(F)cc2)c1` [YT-9-2], the “p62 protein oligomerization activity” value at p62 protein is given as “increasing the p62 protein oligomerization activity”. In addition, the “autophagy activity (level of LC3)” value with LC3 (setting [2]) is given as “gradually increased”.
As to `OCCNCc1ccc(OCc2ccccc2)c(O)c1` [YTK-1005, reference compound], the “p62 activation/oligomerization, delivery to autophagosome and autophagy activity (p62 and LC3 puncta), control compounds” value in the test with p62 and LC3 is “delivering them to autophagosome and simultaneously increasing autophagy activity”.
In the case of `OCCCCc1ccc(OCc2ccccc2)c(OCc2ccccc2)c1` [YTK-1105-1, 4-(3,4-bis(benzyloxy)phenyl)butan-1-ol, reference compound], the “p62 activation/oligomerization, delivery to autophagosome and autophagy activity (p62 and LC3 puncta), control compounds” value in the test on p62 and LC3 is “delivering them to autophagosome and simultaneously increasing autophagy activity”. In the test on LC3 (different concentrations and different times, FIG. 5), the “autophagy activity (level of LC3), control compounds” value was “do not increase autophagy activity”.
